# Assays:
# Test in all cases: radiometric filter-binding kinase assay, Kinase HotSpot
# Conditions in all cases: compound 0.5 µM; ATP 10 µM
# EPHA5 (human) = EPHA5 (human) (UniProt P54756)
# MARK3 (human) = MARK3 (human) (UniProt P27448)
# CDK4 CCND3 (human) = CDK4 CCND3 (human) (UniProt P30281+P11802)
# PRKCI (human) = PRKCI (human) (UniProt P41743)
# MAP3K10 (human) = MAP3K10 (human) (UniProt Q02779)
# CDK5 CDK5R1 p35 (human) = CDK5 CDK5R1 p35 (human) (UniProt Q00535+Q15078)
# PASK (human) = PASK (human) (UniProt Q96RG2)
# AURKB (human) = AURKB (human) (UniProt Q96GD4)
# RPS6KB2 (human) = RPS6KB2 (human) (UniProt Q9UBS0)
# Sequence of RPS6KB2 (human) (Q9UBS0 whole entry, looked up): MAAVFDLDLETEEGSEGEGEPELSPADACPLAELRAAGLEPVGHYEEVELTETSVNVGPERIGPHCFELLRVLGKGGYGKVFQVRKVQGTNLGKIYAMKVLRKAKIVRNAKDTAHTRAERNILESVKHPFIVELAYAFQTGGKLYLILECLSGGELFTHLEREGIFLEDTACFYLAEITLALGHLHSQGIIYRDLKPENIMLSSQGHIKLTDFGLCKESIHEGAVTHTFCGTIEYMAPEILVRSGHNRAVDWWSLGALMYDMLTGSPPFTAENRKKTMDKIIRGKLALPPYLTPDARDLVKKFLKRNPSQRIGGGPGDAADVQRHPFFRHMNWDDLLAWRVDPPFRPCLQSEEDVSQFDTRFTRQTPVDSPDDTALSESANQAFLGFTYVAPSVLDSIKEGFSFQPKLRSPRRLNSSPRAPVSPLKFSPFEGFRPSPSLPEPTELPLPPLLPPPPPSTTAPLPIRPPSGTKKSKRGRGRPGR
# GSK3B (human) = GSK3B (human) (UniProt P49841)
# TSSK1B (human) = TSSK1B (human) (UniProt Q9BXA7)
# MAP3K11 (human) = MAP3K11 (human) (UniProt Q16584)
# CSNK2A2 (human) = CSNK2A2 (human) (UniProt P19784)
# STK3 (human) = STK3 (human) (UniProt Q13188)
# CAMK1D (human) = CAMK1D (human) (UniProt Q8IU85)
# MAPKAPK2 (human) = MAPKAPK2 (human) (UniProt P49137)
# Sequence of MAPKAPK2 (human) (P49137 whole entry, looked up): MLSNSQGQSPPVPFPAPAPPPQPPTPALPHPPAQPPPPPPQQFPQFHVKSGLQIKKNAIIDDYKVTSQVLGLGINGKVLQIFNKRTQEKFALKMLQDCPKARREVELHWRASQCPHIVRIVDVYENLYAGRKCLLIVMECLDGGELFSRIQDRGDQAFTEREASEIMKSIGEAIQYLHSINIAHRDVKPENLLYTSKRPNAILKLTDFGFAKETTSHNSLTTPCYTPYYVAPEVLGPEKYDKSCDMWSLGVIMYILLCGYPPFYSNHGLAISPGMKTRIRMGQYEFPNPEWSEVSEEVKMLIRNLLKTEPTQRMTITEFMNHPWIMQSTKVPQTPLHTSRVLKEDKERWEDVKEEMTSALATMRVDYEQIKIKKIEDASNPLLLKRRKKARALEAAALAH
# MAPK10 (human) = MAPK10 (human) (UniProt P53779)
# RPS6KA4 KD2 (human) = RPS6KA4 KD2 (human) (UniProt O75676)
# ACVR1B (human) = ACVR1B (human) (UniProt P36896)
# TEC (human) = TEC (human) (UniProt P42680)
# ROS1 (human) = ROS1 (human) (UniProt P08922)
# CLK1 (human) = CLK1 (human) (UniProt P49759)
# Sequence of CLK1 (human) (P49759 whole entry, looked up): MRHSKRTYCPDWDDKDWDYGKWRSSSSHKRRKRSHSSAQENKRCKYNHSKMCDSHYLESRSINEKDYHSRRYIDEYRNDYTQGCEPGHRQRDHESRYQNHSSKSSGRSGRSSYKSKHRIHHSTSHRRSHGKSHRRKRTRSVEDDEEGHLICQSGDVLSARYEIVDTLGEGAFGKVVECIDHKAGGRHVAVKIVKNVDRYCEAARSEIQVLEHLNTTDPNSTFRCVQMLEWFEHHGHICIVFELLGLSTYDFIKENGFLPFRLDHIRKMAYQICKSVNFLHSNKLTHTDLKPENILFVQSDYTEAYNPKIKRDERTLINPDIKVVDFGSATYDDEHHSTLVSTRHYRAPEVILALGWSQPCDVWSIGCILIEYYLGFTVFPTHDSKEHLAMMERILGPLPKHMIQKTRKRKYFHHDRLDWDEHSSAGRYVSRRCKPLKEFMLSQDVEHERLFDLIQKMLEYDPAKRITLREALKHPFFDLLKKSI
# MAP3K2 (human) = MAP3K2 (human) (UniProt Q9Y2U5)
# PRKCG (human) = PRKCG (human) (UniProt P05129)
# PRKCZ (human) = PRKCZ (human) (UniProt Q05513)
# PHKG2 (human) = PHKG2 (human) (UniProt P15735)
# Sequence of PHKG2 (human) (P15735 whole entry, looked up): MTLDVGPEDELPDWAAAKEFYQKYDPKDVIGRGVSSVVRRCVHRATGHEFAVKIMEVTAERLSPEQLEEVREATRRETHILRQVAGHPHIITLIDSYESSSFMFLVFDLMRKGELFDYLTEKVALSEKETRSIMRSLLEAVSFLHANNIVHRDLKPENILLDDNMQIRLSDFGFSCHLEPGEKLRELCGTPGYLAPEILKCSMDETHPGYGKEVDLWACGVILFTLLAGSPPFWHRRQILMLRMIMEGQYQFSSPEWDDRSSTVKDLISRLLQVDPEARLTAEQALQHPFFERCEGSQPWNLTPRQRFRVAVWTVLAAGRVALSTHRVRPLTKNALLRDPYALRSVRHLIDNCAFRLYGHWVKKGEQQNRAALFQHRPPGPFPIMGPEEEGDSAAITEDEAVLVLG
# EGFR (human) = EGFR (human) (UniProt P00533)
# Sequence of EGFR (human) (P00533 whole entry, looked up): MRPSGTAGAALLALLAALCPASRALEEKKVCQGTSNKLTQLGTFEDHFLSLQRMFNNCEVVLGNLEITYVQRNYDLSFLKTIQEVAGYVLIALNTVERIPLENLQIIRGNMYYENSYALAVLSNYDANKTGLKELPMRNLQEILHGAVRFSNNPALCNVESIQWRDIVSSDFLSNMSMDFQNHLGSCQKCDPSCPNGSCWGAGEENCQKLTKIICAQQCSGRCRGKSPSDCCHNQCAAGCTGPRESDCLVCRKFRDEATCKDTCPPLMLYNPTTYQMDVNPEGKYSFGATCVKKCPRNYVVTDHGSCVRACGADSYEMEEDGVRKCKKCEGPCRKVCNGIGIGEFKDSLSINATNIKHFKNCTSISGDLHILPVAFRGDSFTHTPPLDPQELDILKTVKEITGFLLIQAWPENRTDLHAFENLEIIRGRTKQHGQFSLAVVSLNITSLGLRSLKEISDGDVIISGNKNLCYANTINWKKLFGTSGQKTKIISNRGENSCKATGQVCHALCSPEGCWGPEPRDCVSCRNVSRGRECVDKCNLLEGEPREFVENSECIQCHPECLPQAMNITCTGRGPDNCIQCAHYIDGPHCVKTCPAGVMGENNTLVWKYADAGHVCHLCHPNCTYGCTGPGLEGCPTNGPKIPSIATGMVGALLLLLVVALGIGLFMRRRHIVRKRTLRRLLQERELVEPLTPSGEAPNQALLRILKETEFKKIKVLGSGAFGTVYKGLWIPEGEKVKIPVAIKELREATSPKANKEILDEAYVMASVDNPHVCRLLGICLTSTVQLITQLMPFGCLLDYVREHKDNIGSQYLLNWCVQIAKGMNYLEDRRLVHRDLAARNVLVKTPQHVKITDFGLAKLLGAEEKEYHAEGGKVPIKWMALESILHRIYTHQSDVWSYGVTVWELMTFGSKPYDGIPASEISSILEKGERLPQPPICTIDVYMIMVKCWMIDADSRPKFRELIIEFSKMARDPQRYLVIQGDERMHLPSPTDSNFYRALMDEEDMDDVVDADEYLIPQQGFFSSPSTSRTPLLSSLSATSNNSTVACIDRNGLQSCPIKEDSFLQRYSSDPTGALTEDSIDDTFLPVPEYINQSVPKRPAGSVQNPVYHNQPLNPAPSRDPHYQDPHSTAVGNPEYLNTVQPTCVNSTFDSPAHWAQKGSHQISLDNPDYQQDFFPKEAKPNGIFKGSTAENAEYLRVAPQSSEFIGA
# MAP4K4 (human) = MAP4K4 (human) (UniProt O95819)
# STK25 (human) = STK25 (human) (UniProt O00506)
# ABL1 (human) = ABL1 (human) (UniProt P00519)
# EPHA7 (human) = EPHA7 (human) (UniProt Q15375)
# MAP3K8 (human) = MAP3K8 (human) (UniProt P41279)
# MAP3K9 (human) = MAP3K9 (human) (UniProt P80192)
# ULK2 (human) = ULK2 (human) (UniProt Q8IYT8)
# MAP2K2 (human) = MAP2K2 (human) (UniProt P36507)
# EPHB2 (human) = EPHB2 (human) (UniProt P29323)
# HIPK4 (human) = HIPK4 (human) (UniProt Q8NE63)
# LTK (human) = LTK (human) (UniProt P29376)
# TAOK2 (human) = TAOK2 (human) (UniProt Q9UL54)
# Sequence of TAOK2 (human) (Q9UL54 whole entry, looked up): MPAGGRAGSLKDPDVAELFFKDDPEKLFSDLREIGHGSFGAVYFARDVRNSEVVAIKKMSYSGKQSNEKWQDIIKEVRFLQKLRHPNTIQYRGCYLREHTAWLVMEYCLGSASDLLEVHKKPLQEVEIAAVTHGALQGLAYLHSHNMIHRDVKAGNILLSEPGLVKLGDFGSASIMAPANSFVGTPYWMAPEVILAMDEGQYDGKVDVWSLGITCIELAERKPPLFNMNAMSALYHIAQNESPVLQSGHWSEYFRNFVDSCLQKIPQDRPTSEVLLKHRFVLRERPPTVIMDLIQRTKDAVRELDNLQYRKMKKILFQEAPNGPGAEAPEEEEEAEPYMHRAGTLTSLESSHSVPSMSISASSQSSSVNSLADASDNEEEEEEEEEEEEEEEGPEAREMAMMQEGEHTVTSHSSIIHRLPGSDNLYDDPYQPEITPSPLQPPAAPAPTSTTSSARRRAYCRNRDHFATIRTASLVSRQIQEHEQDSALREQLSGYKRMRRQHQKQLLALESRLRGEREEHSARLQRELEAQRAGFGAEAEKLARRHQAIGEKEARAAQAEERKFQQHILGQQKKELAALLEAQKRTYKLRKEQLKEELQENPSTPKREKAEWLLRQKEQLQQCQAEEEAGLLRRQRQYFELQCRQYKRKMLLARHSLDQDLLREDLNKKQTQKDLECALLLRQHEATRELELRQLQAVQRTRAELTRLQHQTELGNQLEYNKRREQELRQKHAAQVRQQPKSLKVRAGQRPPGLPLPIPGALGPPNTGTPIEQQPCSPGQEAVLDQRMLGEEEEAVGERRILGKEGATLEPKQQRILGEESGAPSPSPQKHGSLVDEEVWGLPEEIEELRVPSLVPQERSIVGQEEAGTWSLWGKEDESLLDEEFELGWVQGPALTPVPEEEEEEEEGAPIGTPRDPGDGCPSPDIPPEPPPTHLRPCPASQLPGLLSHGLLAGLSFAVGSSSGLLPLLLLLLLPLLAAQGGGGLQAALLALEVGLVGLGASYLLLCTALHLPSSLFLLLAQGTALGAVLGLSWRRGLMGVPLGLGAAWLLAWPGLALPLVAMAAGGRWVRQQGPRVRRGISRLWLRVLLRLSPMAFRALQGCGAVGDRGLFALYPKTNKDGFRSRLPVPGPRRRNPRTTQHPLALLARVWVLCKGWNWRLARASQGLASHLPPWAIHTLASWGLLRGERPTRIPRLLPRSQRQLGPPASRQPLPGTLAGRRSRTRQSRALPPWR
# ITK (human) = ITK (human) (UniProt Q08881)
# PNCK (human) = PNCK (human) (UniProt Q6P2M8)
# PKN2 (human) = PKN2 (human) (UniProt Q16513)
# Sequence of PRKCI (human) (P41743 whole entry, looked up): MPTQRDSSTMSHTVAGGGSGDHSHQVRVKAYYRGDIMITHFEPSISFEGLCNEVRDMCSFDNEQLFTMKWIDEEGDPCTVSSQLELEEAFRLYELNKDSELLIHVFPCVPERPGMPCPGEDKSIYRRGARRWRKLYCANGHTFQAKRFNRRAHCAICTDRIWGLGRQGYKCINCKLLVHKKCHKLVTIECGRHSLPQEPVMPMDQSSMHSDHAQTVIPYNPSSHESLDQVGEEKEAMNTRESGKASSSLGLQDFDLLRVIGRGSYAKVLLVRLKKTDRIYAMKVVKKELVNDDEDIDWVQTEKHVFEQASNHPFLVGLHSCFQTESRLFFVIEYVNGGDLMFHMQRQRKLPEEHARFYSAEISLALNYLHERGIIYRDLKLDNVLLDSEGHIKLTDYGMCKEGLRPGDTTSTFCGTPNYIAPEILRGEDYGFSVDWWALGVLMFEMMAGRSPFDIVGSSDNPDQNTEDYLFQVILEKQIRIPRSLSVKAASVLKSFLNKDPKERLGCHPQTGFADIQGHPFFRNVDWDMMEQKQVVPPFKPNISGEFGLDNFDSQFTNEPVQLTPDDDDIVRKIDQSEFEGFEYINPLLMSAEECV
smiles,measurement,setting,value
O=C1NC(=O)C(c2cn(CCCn3ccnc3)c3ccccc23)=C1Nc1ccccc1,residual activity,EPHA5 (human),96.1%
same,residual activity,MARK3 (human),92.1%
same,residual activity,CDK4 CCND3 (human),91%
same,residual activity,PRKCI (human),90.7%
same,residual activity,MAP3K10 (human),34.5%
same,residual activity,CDK5 CDK5R1 p35 (human),91.4%
same,residual activity,PASK (human),98%
same,residual activity,AURKB (human),95.4%
same,residual activity,RPS6KB2 (human),86.1%
same,residual activity,GSK3B (human),14.2%
same,residual activity,TSSK1B (human),102%
same,residual activity,MAP3K11 (human),13.3%
same,residual activity,CSNK2A2 (human),87.6%
same,residual activity,STK3 (human),52%
same,residual activity,CAMK1D (human),97.4%
same,residual activity,MAPKAPK2 (human),102%
same,residual activity,MAPK10 (human),100%
same,residual activity,RPS6KA4 KD2 (human),44.4%
same,residual activity,ACVR1B (human),96.2%
same,residual activity,TEC (human),162%
same,residual activity,ROS1 (human),78.7%
same,residual activity,CLK1 (human),43.3%
same,residual activity,MAP3K2 (human),83.3%
same,residual activity,PRKCG (human),51.6%
same,residual activity,PRKCZ (human),99.6%
same,residual activity,PHKG2 (human),107%
same,residual activity,EGFR (human),95.1%
same,residual activity,MAP4K4 (human),64%
same,residual activity,STK25 (human),63.1%
same,residual activity,ABL1 (human),96.1%
same,residual activity,EPHA7 (human),89.5%
same,residual activity,MAP3K8 (human),100%
same,residual activity,MAP3K9 (human),30.6%
same,residual activity,ULK2 (human),91.7%
same,residual activity,MAP2K2 (human),102%
same,residual activity,EPHB2 (human),98.4%
same,residual activity,HIPK4 (human),90.7%
same,residual activity,LTK (human),93.4%
same,residual activity,TAOK2 (human),92.3%
same,residual activity,ITK (human),93.9%
same,residual activity,PNCK (human),90.6%
same,residual activity,PKN2 (human),76.9%
Nc1cccc(-c2cc3c(Oc4cccc(O)c4)ncnc3[nH]2)c1,residual activity,EPHA5 (human),41.7%
same,residual activity,MARK3 (human),77.5%
same,residual activity,CDK4 CCND3 (human),92.8%
same,residual activity,PRKCI (human),84.6%
same,residual activity,MAP3K10 (human),79.2%
same,residual activity,CDK5 CDK5R1 p35 (human),72.2%
same,residual activity,PASK (human),96.2%
same,residual activity,AURKB (human),71.9%
same,residual activity,RPS6KB2 (human),94.7%
same,residual activity,GSK3B (human),48.1%
same,residual activity,TSSK1B (human),91.1%
same,residual activity,MAP3K11 (human),52.4%
same,residual activity,CSNK2A2 (human),96.5%
same,residual activity,STK3 (human),109%
same,residual activity,CAMK1D (human),97.7%
same,residual activity,MAPKAPK2 (human),108%
same,residual activity,MAPK10 (human),89.4%
same,residual activity,RPS6KA4 KD2 (human),103%
same,residual activity,ACVR1B (human),122%
same,residual activity,TEC (human),108%
same,residual activity,ROS1 (human),39.7%
same,residual activity,CLK1 (human),93%
same,residual activity,MAP3K2 (human),86.9%
same,residual activity,PRKCG (human),88.1%
same,residual activity,PRKCZ (human),94%
same,residual activity,PHKG2 (human),109%
same,residual activity,EGFR (human),7.89%
same,residual activity,MAP4K4 (human),12.5%
same,residual activity,STK25 (human),91.6%
same,residual activity,ABL1 (human),5.5%
same,residual activity,EPHA7 (human),77.2%
same,residual activity,MAP3K8 (human),99.6%
same,residual activity,MAP3K9 (human),16.2%
same,residual activity,ULK2 (human),97.5%
same,residual activity,MAP2K2 (human),104%
same,residual activity,EPHB2 (human),40.7%
same,residual activity,HIPK4 (human),103%
same,residual activity,LTK (human),16.8%
same,residual activity,TAOK2 (human),81.4%
same,residual activity,ITK (human),102%
same,residual activity,PNCK (human),98.2%
same,residual activity,PKN2 (human),72%

# From the kinase profiling compilation of Christmann-Franck et al. (2016)
